Results as given in patent US20250360120A1, “METHODS OF TREATMENT OF DRAVET SYNDROME” (Noema Pharma AG, priority 2023, published 2025).

Test system: Scn1a+/− mice
Assay: Seizure frequency, seizure freedom and time to first seizure (frontal cortex EEG) in Scn1a+/− mice
Assay type: in vivo
Details: for Odds Ratio of seizure freedom (vs Untreated) / Probability of seizure freedom: GLM binomial; for median time to first seizure: Kaplan-Meier, Untreated group 7 days
Experimental: Heterozygous deletion of Sca1a in mice (Scn1a+/−) recapitulates several core phenotypes of clinical Dravet syndrome, including temperature-dependent and spontaneous seizures, SUDEP, and behavioral abnormalities. […] As such, Scn1a+/−mice are a favourable model to enable translation of novel ASMs with varied mechanism of action to the clinic.
The experiment was conducted to evaluate the effect of Compound I, CTEP and RO6807794 on seizure frequency, seizure freedom and survival in Scn1a+/− mice.
Frontal cortex recordings were selected as representative of the seizure phenomenology on mice experiencing generalized seizures. EEG headmounts were implanted between P20-22 and recordings were initiated for continuous monitoring for a period of approximately 14-days for the NAM group and PAM group. Individual frontal cortex seizure measurements over time were visually explored and summaries across the time course were calculated. • 1. Seizure frequency
Seizure frequency was measured by count of the number of seizures observed each day. The frequency was analyzed using a Chi-square test (all treatments) and Fisher's Exact test (pairwise treatment comparisons). • 2. Seizure freedom
Seizure freedom was measured with a binary (0 or 1) endpoint, where it was recorded as a […] was recorded across the whole study. Seizure freedom was summarized across all animals into a contingency table and analyzed using a generalized linear model (GLM) with a binomial distribution for the errors and a logit link function. The results were presented as probabilities and odds ratios between groups and 95% confidence intervals. The odd ratio described how much more likely it is for an animal to have no seizures (Seizure freedom=1) in a treated group compared to the untreated group. Analyses were performed using GraphPad Prism 9 (contingency table) and SAS 9.4 (binomial model). • 3. Time to first seizure:
Time to first seizure refers the time recorded as the day on which the first seizure occurred (an observed, uncensored observation), or the final day of recording for that animal if on seizure was observed (a censored observation). Time to first seizure was visualized using a Kaplan-Meier plot and analyzed using a Log-rank (Mantel-Cox) test. Analyses were performed using GraphPad Prism 9. • 4. Total seizure burden
Total seizure burden is sum of the seizure frequency across all study days. • 5. Seizure per day
Seizure per day is measured by the total seizure count divided by the number of study days, wherein a seizure count measurement was adjusted by the number of days the animal was in the study.
Time to first seizure and Seizure per day were explored visually and analyzed using analysis of variance (ANOVA). Results were presented as geometric means, ratios of geometric means, confidence intervals and p-values. An additional non-parametric analysis, Kruskal-Wallis, was explored along with Wilcoxon pairwise comparisons to the Untreated group. The data was also analyzed using a generalized linear model (GLM) with a Poisson distribution for the errors and a log link function. The linear predictor described a model suitable for exploring a fixed effect of treatment group.

[1] = 0.3 mg/kg PO every other day for 28-days
[2] = ANOVA on log10 adjusted scale, 0.3 mg/kg PO every other day for 28-days
[3] = Generalized Linear Model on discrete (count) data, 0.3 mg/kg PO every other day for 28-days
[4] = Kruskal-Wallis with Wilcoxon pairwise tests, 0.3 mg/kg PO every other day for 28-days
[5] = exploratory ANOVA on log10 scale, 0.3 mg/kg PO every other day for 28-days
[6] = 0.3 mg/kg PO once daily for 28-days from P10
[7] = 1 mg/kg PO once daily for 28-days from P10
[8] = ANOVA on log10 adjusted scale, 0.3 mg/kg PO once daily for 28-days from P10
[9] = ANOVA on log10 adjusted scale, 1 mg/kg PO once daily for 28-days from P10
[10] = Generalized Linear Model on discrete (count) data, 0.3 mg/kg PO once daily for 28-days from P10
[11] = Generalized Linear Model on discrete (count) data, 1 mg/kg PO once daily for 28-days from P10
[12] = Kruskal-Wallis with Wilcoxon pairwise tests, 1 mg/kg PO once daily for 28-days from P10
[13] = exploratory ANOVA on log10 scale, 0.3 mg/kg PO once daily for 28-days from P10
[14] = exploratory ANOVA on log10 scale, 1 mg/kg PO once daily for 28-days from P10
[15] = ANOVA on log10 adjusted scale, 0.3 mg/kg IP once daily for 5-days from P21
[16] = Generalized Linear Model on discrete (count) data, 0.3 mg/kg IP once daily for 5-days from P21

Cc1nc(C#Cc2ccnc(Cl)c2)c(C)n1-c1ccc(OC(F)(F)F)cc1 [CTEP, reference compound]
Frequency of animals with At least 1 Seizure [1]: 4
Frequency of animals with No Seizures (seizure freedom) [1]: 11
Percent of animals with At least 1 Seizure [1]: 26.7%
Percent of animals with No Seizures (seizure freedom) [1]: 73.3%
animals with Seizure Freedom over time (Kaplan-Meier, in words) [1]: more animals with Seizure Freedom for a longer duration
Seizure per day, % Change compared to untreated group [2]: −79.05%
Seizure per day, Geometric Mean [2]: 0.026
Seizure per day, Ratio of Means compared to untreated group [2]: 0.21
reduction of average seizure per day compared to the Untreated group [2]: 85%
Odds Ratio of seizure freedom (vs Untreated) [1]: 8.25
Probability of seizure freedom [1]: 0.73
reduction of total seizure burden compared to the Untreated group (GLM on discrete (count) data, 0.3 mg/kg PO every other day for 28-days): 62%
Seizure per day, % Change vs Untreated [3]: −23.56%
Seizure per day, Geometric Mean [3]: 0.375
Seizure per day, Ratio of Means vs Untreated [3]: 0.76
Total Seizure Burden, % Change vs Untreated [3]: −62.47%
Total Seizure Burden, Geometric Mean [3]: 2.53
Total Seizure Burden, Ratio of Means vs Untreated [3]: 0.38
seizure per day rates compared to the Untreated group (in words) [4]: decreased seizure per day rates
total seizure burden compared to the Untreated group (in words) [4]: lower total seizure burden
Total Seizure Burden, % Change compared to Untreated group [5]: −82.08%
Total Seizure Burden, Geometric Mean [5]: 0.32
Total Seizure Burden, Ratio of Means compared to Untreated group [5]: 0.18
reduction of total seizure burden compared to the Untreated group [5]: 82%

Cc1nc(C#Cc2ccnc(Cl)c2)c(C)n1-c1ccc(F)cc1 [Compound I, 2-chloro-4-[1-(4-fluorophenyl)-2,5-dimethyl-1H-imidazol-4-ylethynyl]pyridine]
Frequency of animals with At least 1 Seizure [6]: 10
Frequency of animals with No Seizures (seizure freedom) [6]: 1
Percent of animals with At least 1 Seizure [6]: 90.9%
Percent of animals with No Seizures (seizure freedom) [6]: 9.1%
Frequency of animals with At least 1 Seizure [7]: 3
Frequency of animals with No Seizures (seizure freedom) [7]: 10
Percent of animals with At least 1 Seizure [7]: 23.1%
Percent of animals with No Seizures (seizure freedom) [7]: 76.9%
animals with Seizure Freedom over time (Kaplan-Meier, in words) [7]: more animals with Seizure Freedom for a longer duration
chance of seizure freedom (1 mg/kg PO once daily for 28-days from P10, 25% in the Untreated group): 77%
Seizure per day, % Change compared to untreated group [8]: 183.96%
Seizure per day, Geometric Mean [8]: 0.349
Seizure per day, Ratio of Means compared to untreated group [8]: 2.84
Seizure per day, % Change compared to untreated group [9]: −84.81%
Seizure per day, Geometric Mean [9]: 0.019
Seizure per day, Ratio of Means compared to untreated group [9]: 0.15
reduction of average seizure per day compared to the Untreated group [9]: 79%
Odds Ratio of seizure freedom (vs Untreated) [6]: 0.3
Probability of seizure freedom [6]: 0.09
Odds Ratio of seizure freedom (vs Untreated) [7]: 10
Probability of seizure freedom [7]: 0.77
reduction of total seizure burden compared to the Untreated group (GLM on discrete (count) data, 1 mg/kg PO once daily for 28-days from P10): 44%
Seizure per day, % Change vs Untreated [10]: 85.38%
Seizure per day, Geometric Mean [10]: 0.910
Seizure per day, Ratio of Means vs Untreated [10]: 1.85
Total Seizure Burden, % Change vs Untreated [10]: 87.21%
Total Seizure Burden, Geometric Mean [10]: 12.64
Total Seizure Burden, Ratio of Means vs Untreated [10]: 1.87
Seizure per day, % Change vs Untreated [11]: −46.32%
Seizure per day, Geometric Mean [11]: 0.263
Seizure per day, Ratio of Means vs Untreated [11]: 0.54
Total Seizure Burden, % Change vs Untreated [11]: −44.16%
Total Seizure Burden, Geometric Mean [11]: 3.77
Total Seizure Burden, Ratio of Means vs Untreated [11]: 0.56
median time to first seizure [6]: 2 days
seizure per day rates compared to the Untreated group (in words) [12]: decreased seizure per day rates
total seizure burden compared to the Untreated group (in words) [12]: lower total seizure burden
Total Seizure Burden, % Change compared to Untreated group [13]: 136.21%
Total Seizure Burden, Geometric Mean [13]: 4.16
Total Seizure Burden, Ratio of Means compared to Untreated group [13]: 2.36
Total Seizure Burden, % Change compared to Untreated group [14]: −84.25%
Total Seizure Burden, Geometric Mean [14]: 0.28
Total Seizure Burden, Ratio of Means compared to Untreated group [14]: 0.16
reduction of total seizure burden compared to the Untreated group [14]: 84%

CN(C(=O)c1ncc(C#Cc2cccc(F)c2)cn1)C(C)(C)C [RO6807794, reference compound]
Seizure per day, % Change compared to untreated group [15]: 751.1%
Seizure per day, Geometric Mean [15]: 1.046
Seizure per day, Ratio of Means compared to untreated group [15]: 8.51
seizure per day rates compared to the Untreated group (in words) (GLM on discrete (count) data, 0.3 mg/kg IP once daily for 5-days from P21): statistically significantly increased seizure per day rates
Seizure per day, % Change vs Untreated [16]: 407.47%
Seizure per day, Geometric Mean [16]: 2.490
Seizure per day, Ratio of Means vs Untreated [16]: 5.07
median time to first seizure (0.3 mg/kg IP once daily for 5-days from P21): 3 days
seizure per day rates compared to the Untreated group (in words) (Kruskal-Wallis with Wilcoxon pairwise tests, 0.3 mg/kg IP once daily for 5-days from P21): increased seizure per day rates
